In patent US8357833B2, “Corn plants and seed enhanced for asparagine and protein” (priority 2007, dated 2013):

Tests used:
[1] = target: T1, Zea mays asparagine synthetase Zm AsnS4 (SEQ ID NO: 51, encoded by SEQ ID NO: 50) (Zea mays, UniProt B5U8J9); assay: Kinetics of recombinant his-tagged, refolded maize asparagine synthetase AsnS4 (substrate titration, asparagine by HPLC); assay type: biochemical; details: 100 mM Hepes, pH 8.0, 10 mM MgCl2, read-out: Km(NH4^+)
T1 construct: 588 aa
T1 sequence (B5U8J9 1-588): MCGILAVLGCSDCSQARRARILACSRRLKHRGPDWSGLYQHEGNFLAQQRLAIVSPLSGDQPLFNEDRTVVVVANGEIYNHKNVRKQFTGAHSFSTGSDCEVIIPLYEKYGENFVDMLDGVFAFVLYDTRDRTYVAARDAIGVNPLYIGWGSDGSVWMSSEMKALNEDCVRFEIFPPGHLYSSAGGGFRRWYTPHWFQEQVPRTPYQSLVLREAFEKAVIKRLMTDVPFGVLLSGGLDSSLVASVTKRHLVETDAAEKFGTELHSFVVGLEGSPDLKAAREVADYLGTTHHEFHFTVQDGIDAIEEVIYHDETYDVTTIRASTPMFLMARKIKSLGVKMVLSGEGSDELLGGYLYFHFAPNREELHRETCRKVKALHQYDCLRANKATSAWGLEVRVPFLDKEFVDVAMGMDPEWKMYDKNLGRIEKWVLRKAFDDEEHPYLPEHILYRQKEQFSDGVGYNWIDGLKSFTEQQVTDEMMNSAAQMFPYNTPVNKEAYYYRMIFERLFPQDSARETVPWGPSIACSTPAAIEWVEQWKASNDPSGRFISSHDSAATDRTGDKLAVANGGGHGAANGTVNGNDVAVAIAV
Experimental: The effect of expression of asparagine synthetase genes on asparagine synthetase activity was measured in transgenic events of pMON79706 and pMON92870. Frozen, ground leaf tissue was aliquoted (200-400 mg) into wells from a precooled 96 deep-well plate. Protein was extracted in Buffer A (100 mM Hepes-OH, pH 8.0, 0.1 mM EDTA, 10 mM MgCl2, 2 mM aspartate, 0.5 mM DTT, 67 mM mercaptoethanol, 20% (v/v) glycerol, 0.1 mM ATP, 1% (v/v) P9599 (Sigma Company), 25 mM KCl). A small amount of sand was added to each well. Buffer A was then added to the leaf tissue in the wells at a ratio of 4:1 (buffer:tissue). The plates were then agitated in a paint shaker for 2 min. to mix the sample and then centrifuged at 5000×g for 10 minutes. The supernatant (100-200 μL) was desalted in a 96-well macro spin plate (SNS S025L, The Nest Group Inc., Southboro, Mass.) equilibrated in buffer A. The supernatant was then either assayed immediately or frozen in liquid nitrogen and maintained at −80° C. until used. To assay asparagine synthetase activity, desalted protein extracts (10-50 μL) were added to wells containing 100 μL assay solution (100 mM Hepes, pH 8.0, 10 mM MgCl2, 2 mM aspartate, 5 mM DTT, 10 mM ATP, 1 mM amino(oxy)acetic acid (aspartate amino transferase inhibitor), 1 mM aspartic semialdehyde (asparaginase inhibitor). To start the reaction, glutamine (final concentration of 2 mM for standard assay) was added to the solution, which was then mixed. The assay mixture was then incubated for 1 to 2 hours. The reaction was then stopped by the addition of an equal volume of 20% (w/v) trichloroacetic acid. The mixture was then filtered to remove precipitate and asparagine was measured by HPLC. Sample size was increased from 0.5 μL to 2.5 μL for HPLC, excitation wavelength was reduced from 340 nm to 235 nm, and fluorimeter gain was increased from 10 to 13. […]

[2] = target: T2, Zea mays asparagine synthetase Zm AsnS3 (SEQ ID NO: 6, encoded by SEQ ID NO: 5) (Zea mays, UniProt B5U8J8); assay: Kinetics of recombinant his-tagged, refolded maize asparagine synthetase AsnS3 (substrate titration, asparagine by HPLC); assay type: biochemical; details: 100 mM Hepes, pH 8.0, 10 mM MgCl2, read-out: Km(NH4^+)
T2 construct: 588 aa
T2 sequence (B5U8J8 1-588): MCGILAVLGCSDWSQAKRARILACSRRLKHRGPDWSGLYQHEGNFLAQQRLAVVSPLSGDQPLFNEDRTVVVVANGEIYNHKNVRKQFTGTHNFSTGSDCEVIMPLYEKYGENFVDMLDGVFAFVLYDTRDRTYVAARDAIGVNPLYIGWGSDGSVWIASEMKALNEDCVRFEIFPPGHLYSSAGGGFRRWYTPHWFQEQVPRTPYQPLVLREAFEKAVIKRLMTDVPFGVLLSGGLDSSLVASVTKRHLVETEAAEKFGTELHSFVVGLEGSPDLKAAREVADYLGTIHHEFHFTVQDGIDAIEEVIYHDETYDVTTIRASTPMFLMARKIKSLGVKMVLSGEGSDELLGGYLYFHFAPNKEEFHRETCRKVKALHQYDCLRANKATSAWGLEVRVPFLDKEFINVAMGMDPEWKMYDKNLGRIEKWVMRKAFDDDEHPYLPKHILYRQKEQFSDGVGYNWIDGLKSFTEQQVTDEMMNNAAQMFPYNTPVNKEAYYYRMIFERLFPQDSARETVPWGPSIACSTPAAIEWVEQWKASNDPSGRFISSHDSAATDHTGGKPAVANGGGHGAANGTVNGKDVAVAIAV
Experimental: The effect of expression of asparagine synthetase genes on asparagine synthetase activity was measured in transgenic events of pMON79706 and pMON92870. Frozen, ground leaf tissue was aliquoted (200-400 mg) into wells from a precooled 96 deep-well plate. Protein was extracted in Buffer A (100 mM Hepes-OH, pH 8.0, 0.1 mM EDTA, 10 mM MgCl2, 2 mM aspartate, 0.5 mM DTT, 67 mM mercaptoethanol, 20% (v/v) glycerol, 0.1 mM ATP, 1% (v/v) P9599 (Sigma Company), 25 mM KCl). A small amount of sand was added to each well. Buffer A was then added to the leaf tissue in the wells at a ratio of 4:1 (buffer:tissue). The plates were then agitated in a paint shaker for 2 min. to mix the sample and then centrifuged at 5000×g for 10 minutes. The supernatant (100-200 μL) was desalted in a 96-well macro spin plate (SNS S025L, The Nest Group Inc., Southboro, Mass.) equilibrated in buffer A. The supernatant was then either assayed immediately or frozen in liquid nitrogen and maintained at −80° C. until used. […] The mixture was then filtered to remove precipitate and asparagine was measured by HPLC. […]

N [NH4^+]
Km [1]: 9 mM
Km [2]: 8.4 mM
